# Columns and labels:
# Experiment in all cases: DBD combination treatment, viability enhancement factor
# Format in all cases: cell-based, human
# GS102periNS = GS102periNS (p20 + p21), labelled therapy combined with crystalline DBD polymorph
# Description: (§1) Crystalline DBD polymorph treatment was combined with chemotherapy, radiotherapy and targeted inhibitors to determine whether the crystalline DBD polymorph form could: enhance efficacy of the conventional therapies; enhance efficacy when combined with newer ‘targeted’ therapies; or would make (a subset of) cultures more sensitive to this treatment.
# (§2) Therefore, cultures were treated with: • a.
# GS104periNS = GS104periNS (p21 + p22), labelled therapy combined with crystalline DBD polymorph
# Description: as §1, §2
# GS184NS = GS184NS (p18 + p19), labelled therapy combined with crystalline DBD polymorph;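 note: DBD at its own IC50 and half IC50 determined at Day 5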
# Description: as §1, §2
# GS186coreNS = GS186coreNS (p18), labelled therapy combined with crystalline DBD polymorph
# Description: as §1, §2
# GS186periNS = GS186periNS (p15), labelled therapy combined with crystalline DBD polymorph
# Description: as §1, §2
# GS203NS = GS203NS (P19 + p18), labelled therapy combined with crystalline DBD polymorph
# Description: as §1, §2
# GS224NS = GS224NS (p17), labelled therapy combined with crystalline DBD polymorph
# Description: as §1, §2
# GS245NS = GS245NS (p16 + p15), labelled therapy combined with crystalline DBD polymorph
# Description: as §1, §2
# GS249NS = GS249NS (p17), labelled therapy combined with crystalline DBD polymorph
# Description: as §1, §2
# GS257NS = GS257NS (p16 + p17), labelled therapy combined with crystalline DBD polymorph;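 note: DBD at its own IC50 and half IC50 determined at Day 5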
# Description: as §1, §2
# GS261NS = GS261NS (p13), labelled therapy combined with crystalline DBD polymorph
# Description: as §1, §2
# GS279coreNS = conditions: Day 5; GS279coreNS (p12 + p13); labelled therapy combined with crystalline DBD polymorph
# Description: as §1, §2
# GS279periNS = GS279periNS (p16 + p15), labelled therapy combined with crystalline DBD polymorph;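 note: DBD at its own IC50 and half IC50 determined at Day 5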
# Description: as §1, §2
# GS281NS = GS281NS (p15), labelled therapy combined with crystalline DBD polymorph
# Description: as §1, §2
# GS289NS = GS289NS (p15 + p16), labelled therapy combined with crystalline DBD polymorph;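 note: DBD at its own IC50 and half IC50 determined at Day 5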
# Description: as §1, §2
# GS304NS = GS304NS (p16), labelled therapy combined with crystalline DBD polymorph
# Description: as §1, §2
# GS323periNS = conditions: Day 5; GS323periNS (p20 + p19); labelled therapy combined with crystalline DBD polymorph
# Description: as §1, §2
# GS324coreNS = GS324coreNS (p19), labelled therapy combined with crystalline DBD polymorph
# Description: as §1, §2
# GS359NS = GS359NS (p15 + p14), labelled therapy combined with crystalline DBD polymorph
# Description: as §1, §2
# GS365NS = GS365NS (p17 + p16), labelled therapy combined with crystalline DBD polymorph
# Description: as §1, §2
Compound,enhancement factor (viability % of most effective monotherapy divided by viability % of combination) (GS102periNS; Day 5),enhancement factor (viability % of most effective monotherapy divided by viability % of combination) (GS102periNS; Day 8),enhancement factor (viability % of most effective monotherapy divided by viability % of combination) (GS104periNS; Day 5),enhancement factor (viability % of most effective monotherapy divided by viability % of combination) (GS104periNS; Day 8),enhancement factor (viability % of most effective monotherapy divided by viability % of combination) (GS184NS; Day 5),enhancement factor (viability % of most effective monotherapy divided by viability % of combination) (GS184NS; Day 8),enhancement factor (viability % of most effective monotherapy divided by viability % of combination) (GS186coreNS; Day 5),enhancement factor (viability % of most effective monotherapy divided by viability % of combination) (GS186coreNS; Day 8),enhancement factor (viability % of most effective monotherapy divided by viability % of combination) (GS186periNS; Day 5),enhancement factor (viability % of most effective monotherapy divided by viability % of combination) (GS186periNS; Day 8),enhancement factor (viability % of most effective monotherapy divided by viability % of combination) (GS203NS; Day 8),enhancement factor (viability % of most effective monotherapy divided by viability % of combination) (GS224NS; Day 5),enhancement factor (viability % of most effective monotherapy divided by viability % of combination) (GS224NS; Day 8),enhancement factor (viability % of most effective monotherapy divided by viability % of combination) (GS245NS; Day 5),enhancement factor (viability % of most effective monotherapy divided by viability % of combination) (GS245NS; Day 8),enhancement factor (viability % of most effective monotherapy divided by viability % of combination) (GS249NS; Day 5),enhancement factor (viability % of most effective monotherapy divided by viability % of combination) (GS257NS; Day 5),enhancement factor (viability % of most effective monotherapy divided by viability % of combination) (GS257NS; Day 8),enhancement factor (viability % of most effective monotherapy divided by viability % of combination) (GS261NS; Day 5),enhancement factor (viability % of most effective monotherapy divided by viability % of combination) (GS261NS; Day 8),also measured
"Cn1nnc2c(C(N)=O)ncn2c1=O [TMZ, Temozolomide]",1.268,1.309,1.101,0.987,1.362,1.531,1.751,2.029,2.167,1.220,1.159,1.335,1.470,1.099,1.088,1.602,1.005,0.858,1.271,1.462,enhancement factor (viability % of most effective monotherapy divided by viability % of combination) (GS203NS; Day 5): 1.055; enhancement factor (viability % of most effective monotherapy divided by viability % of combination) (GS279coreNS): 1.440; enhancement factor (viability % of most effective monotherapy divided by viability % of combination) (GS279periNS; Day 5): 1.162; enhancement factor (viability % of most effective monotherapy divided by viability % of combination) (GS279periNS; Day 8): 1.129; enhancement factor (viability % of most effective monotherapy divided by viability % of combination) (GS281NS; Day 5): 1.264; enhancement factor (viability % of most effective monotherapy divided by viability % of combination) (GS281NS; Day 8): 1.161; enhancement factor (viability % of most effective monotherapy divided by viability % of combination) (GS289NS; Day 5): 1.376; enhancement factor (viability % of most effective monotherapy divided by viability % of combination) (GS289NS; Day 8): 1.032; enhancement factor (viability % of most effective monotherapy divided by viability % of combination) (GS304NS; Day 5): 1.147; enhancement factor (viability % of most effective monotherapy divided by viability % of combination) (GS304NS; Day 8): 1.134; enhancement factor (viability % of most effective monotherapy divided by viability % of combination) (GS323periNS): 1.553; enhancement factor (viability % of most effective monotherapy divided by viability % of combination) (GS324coreNS; Day 5): 1.700; enhancement factor (viability % of most effective monotherapy divided by viability % of combination) (GS324coreNS; Day 8): 1.377; enhancement factor (viability % of most effective monotherapy divided by viability % of combination) (GS359NS; Day 5): 1.830; enhancement factor (viability % of most effective monotherapy divided by viability % of combination) (GS359NS; Day 8): 1.700; enhancement factor (viability % of most effective monotherapy divided by viability % of combination) (GS365NS; Day 5): 1.156; enhancement factor (viability % of most effective monotherapy divided by viability % of combination) (GS365NS; Day 8): 1.019
Cc1[nH]c2ccccc2c1CCNCc1ccc(/C=C/C(=O)NO)cc1 [Panobinostat],1.591,3.863,1.339,1.796,1.712,2.357,2.557,5.363,2.105,8.116,1.651,4.399,7.387,1.129,1.202,1.074,1.643,1.590,1.392,2.253,enhancement factor (viability % of most effective monotherapy divided by viability % of combination) (GS249NS; Day 8): 0.944; enhancement factor (viability % of most effective monotherapy divided by viability % of combination) (GS279coreNS): 5.962; enhancement factor (viability % of most effective monotherapy divided by viability % of combination) (GS279periNS; Day 5): 1.943; enhancement factor (viability % of most effective monotherapy divided by viability % of combination) (GS279periNS; Day 8): 5.488; enhancement factor (viability % of most effective monotherapy divided by viability % of combination) (GS281NS; Day 5): 1.480; enhancement factor (viability % of most effective monotherapy divided by viability % of combination) (GS281NS; Day 8): 4.353; enhancement factor (viability % of most effective monotherapy divided by viability % of combination) (GS289NS; Day 5): 2.519; enhancement factor (viability % of most effective monotherapy divided by viability % of combination) (GS289NS; Day 8): 3.535; enhancement factor (viability % of most effective monotherapy divided by viability % of combination) (GS304NS; Day 5): 4.406; enhancement factor (viability % of most effective monotherapy divided by viability % of combination) (GS304NS; Day 8): 5.405; enhancement factor (viability % of most effective monotherapy divided by viability % of combination) (GS323periNS): 1.656; enhancement factor (viability % of most effective monotherapy divided by viability % of combination) (GS324coreNS; Day 5): 3.192; enhancement factor (viability % of most effective monotherapy divided by viability % of combination) (GS324coreNS; Day 8): 9.253; enhancement factor (viability % of most effective monotherapy divided by viability % of combination) (GS359NS; Day 5): 4.343; enhancement factor (viability % of most effective monotherapy divided by viability % of combination) (GS359NS; Day 8): 5.512; enhancement factor (viability % of most effective monotherapy divided by viability % of combination) (GS365NS; Day 5): 2.914; enhancement factor (viability % of most effective monotherapy divided by viability % of combination) (GS365NS; Day 8): 3.253

# Reference: patent US20220142941A1, “COMBINATION THERAPEUTIC REGIMENS WITH 1,6-DIBROMO-1,6-DIDEOXY-DULCITOL” (Eleison Pharmaceuticals LLC, priority 2019, published 2022)
